The source of these data is paper PMC11271178, “Effect of Added Salt on the RAFT Polymerization of 2-Hydroxyethyl Methacrylate in Aqueous Media” (Macromolecules, 2024).

Where only a bound is given, the exact number is not on record here.

For data set [1] the following is noted: cited from earlier work.
Data set [2] in a line: Aqueous solubility of HEMA monomer vs added NaCl at 70 °C (gravimetric titration, visual end point). Type of data set: physicochemical. The method, then:
Deionized water (2.0 g) was added to a pre-weighed vial equipped with a magnetic stir bar. This vial was placed in an oil bath set at 70 °C and allowed to equilibrate for 20 min. HEMA was added to a second pre-weighed vial and then added dropwise to the first vial at 70 °C. After the addition of each drop of HEMA, the aqueous HEMA mixture was stirred at 70 °C for 1 min. Visual inspection was used to judge the point at which the HEMA monomer droplets were no longer fully dissolved. […] This experiment was repeated with the deionized water being replaced with a series of aqueous salt solutions (up to 3 M NaCl).
However, its aqueous solubility strongly depends on the presence of salt. For example, the digital photograph shown in Figure 1 (blue frame) clearly illustrates the transition from fully soluble HEMA in 0–0.6 M NaCl to (partially) immiscible HEMA in the presence of 1.5 M NaCl. This change in physical appearance is used as the “end point” for a series of gravimetric titrations to determine the aqueous solubility of HEMA in various salt solutions at 70 °C. For example, HEMA solubility is reduced from 1305 g dm^–3 in 0.75 M NaCl to just 93 g dm^–3 in 3 M NaCl (see Figure 1). In principle, this should be sufficient for the mode of polymerization to switch from an aqueous dispersion polymerization to an aqueous emulsion polymerization. Moreover, added salt was also expected to lower the critical DP at which PHEMA chains become water-insoluble. Combining the salt-tunable aqueous solubility of HEMA with a suitable salt-tolerant precursor such as PMPC should facilitate a systematic study of the effect of added salt on the polymerization kinetics and copolymer morphology.

As to `C=C(C)C(=O)OCC(F)(F)F` [2,2,2-trifluoroethyl methacrylate], the “aqueous solubility of monomer” value in data set [1] is no more than 1 g dm^–3.
Take `C=Cc1ccccc1` [styrene]: the “aqueous solubility of monomer” value in data set [1] is recorded as no more than 1 g dm^–3.
Regarding `C=C(C)C(=O)OCc1ccccc1` [benzyl methacrylate], the “aqueous solubility of monomer” value in data set [1] is recorded as no more than 1 g dm^–3.
Consider `C=C(C)C(=O)OCCO` [HEMA, 2-hydroxyethyl methacrylate], for which the “aqueous solubility of HEMA” value was 1305 g dm^–3 in data set [2] (0.75 M NaCl, 70 °C) and 93 g dm^–3 in data set [2] (3 M NaCl, 70 °C). The solubility at 1 min in data set [2] (aqueous 1.5 M NaCl solution, water, 1.5 M NaCl, 70 °C, homogeneous at lower, emulsion at higher concentration, read-out: aqueous solubility of HEMA (homogeneous mixture vs emulsion)) is no less than 171 mg/mL. Besides, the “miscibility of HEMA with water” value is listed as “fully miscible with water in all proportions” in data set [2] (no added salt) and “water-miscible in all proportions” in data set [2] (up to 0.6 M NaCl, 70 °C).

The term solubility denotes how much of the substance goes into solution per volume.
